Results as given in patent US20090232909A1, “Method for determining physiological effects of hemoglobin” (priority 1999, published 2009).

Tests used:
IOVs = experiment: Binding of SNO-Hb to IOVs from native or DIDS-treated RBCs; conditions: 10 mM MOPS, pH 7, 21% O2
Description: Immunoprecipitation was carried out by incubation of TX-100 or NP-40 extracts with antibodies followed by protein G-Sepharose. We employed two monoclonal anti-AE1 antibodies (Sigma, clone BIII-136, and kindly provided by M. Telen) that recognized epitopes in the cytoplasmic domain and that produced indistinguishable results. Immune complexes were eluted with 10 mM glycine at pH 3.0, and eluates were adjusted immediately to pH 7.4 followed by photolysis/chemiluminescence. Efficiency of immunoprecipitation was confirmed by Western blotting. Binding of SNO-Hb to IOVs was assessed in 10 mM MOPS buffer, pH 7, at room temperature and 21% O2. Incubation was for 15 mins before IOVs were solubilized in 1% TX-100, and heme content was assessed spectrophotometrically. When employed, RBCs were treated for 60 mins with DIDS (0.1 mM; calculated 10-fold molar excess over AE1), then washed thoroughly to remove unreacted DIDS. RBCs were then exposed to NO (as above) or used to prepare DIDS-modified IOVs (as above).

myoglobin = conditions: cited from earlier work
oxyHb = molecular target: T1, oxyHb (Homo sapiens, UniProt P68871+P69905); experiment: Nitrosyl content of normoxic oxyHb after exposure to NO, photolysis-chemiluminescence; type: biochemical
T1 construct: purchased Apex Bioscience (Research Triangle Park, N.C.)
Description: Nitroso/nitrosyl derivatives of Hb were measured using a photolysis-chemiluminescence technique [6-fold excess HgCl2 over protein was added to displace S-nitrosothiol (SNO) (Stamler, J. S., et al., Science, 276:2034-2037, 1997)]. Samples were kept on ice for a period of 5 minutes to 2 hours before analyses. MetHb was monitored by UV-visible spectroscopy as the difference absorption above the linear baseline (600-700 nm), and EPR (below).
(§1) (A) Nitrosyl content of oxyHb (10 mM phosphate 100 μM DTPA, pH 7.4) after exposure to 1.2 μM NO, as measured by photolysis-chemiluminescence (Stamler, J. S., et al., Science, 276:2034-2037, 1997). Nitrosyl yield increases as a function of Hb concentration (P<0.05). Solid symbols, absolute yield of NO bound to Hb (FeNO plus SNO); open symbols, percentage of NO added. Data shown are the average of 7 to 19 experiments±SE. (B) Standard difference spectra of metHb (solid line), deoxyHb (dotted line), and iron nitrosylHb (dashed line) vs. oxyHb. (C) Difference spectra generated from the exposure of NO to normoxic (≈99% oxygen saturation) Hb. NO was added (in 10 aliquots totaling 2.2 μM) to 33 μM Hb in 100 mM phosphate (solid line) or 10 mM phosphate (dotted line) or 10 mM phosphate plus 0.05% borate (dashed line). […] Specifically, spectra in C were fitted, by a least-squares process, to either the simple competition model or the cooperativity model without a mass balance constraint. Cooperativity is present if add increases above that reported in the literature, as a function of oxygen tension.
(A) SOD increases the yield of NO bound to Hb. The experiments in FIG. 3A were repeated in the absence (solid line; 1.2 μM NO) or presence (dashed line; 1.5 μM NO) of 1, 190 units/ml of SOD, which enhances the yield of nitrosyl species to approximately 100% of the NO added. Similar nitrosyl yields were obtained by using stroma-free Hb (25 μM), which is enriched in endogenous SOD (open circle). Data shown are the average of five to nine experiments±SE. (B) EPR spectrum of a DNIC formed by exposure of oxyHb (≈99% sat; 3.93 mM) to NO (36 μM). (C)S-nitrosoHb and iron nitrosylHb formed by exposure of oxyHb (=99% sat., 48 μM) to NO (1.2 μM). SNO (hatched bar) and FeNO (solid bar) were measured by photolysis-chemiluminescence (Stamler, J. S., et al., Science, 276:2034-2037, 1997). Data shown are the average of 12 experiments±SE. (D) Measurement of intraerythrocytic S-nitrosoHb and iron nitrosylHb formed by exposure of oxygenated RBCs (mean [Hb], 25 μM) to 0.3 μM NO. Isolation of Hb and measurements were as previously described (Stamler, J. S., et al., Science, 276:2034-2037, 1997). Data are the mean of 12 experiments±SE.

Hb [1] = molecular target: T2, Hb (Homo sapiens, UniProt P68871+P69905); conditions: cited from earlier work
Hb [2] = molecular target: T2, Hb; experiment: Titration of normoxic Hb with NO, fitted UV-visible difference spectra; type: biochemical; parameters: purchased Apex Bioscience (Research Triangle Park, N.C.)
Description: Air-oxygenated Hb was titrated with 0.22 μM NO. Samples were analyzed immediately after NO addition by UV-visible spectrophotometry. Time between additions varied from 3 to 5 minutes.
The extinction coefficient spectra of metHb, deoxyhb, iron nitrosylHb and oxyHb were generated from pure solutions of each species. HbA was diluted into PBS (pH 7.4) to a known final heme concentration [as calculated by the pyridine-hemochromagen method (Antonini, E., et al., p. 13 in Frontiers in Biology, Neuberger, A. and Tatum, E. L. eds., North-Holland Publishing, Co., Amsterdam, London, 1971)]. MetHb was synthesized by adding excess K3FeCN6. DeoxyHb was measured after the addition of dithionite, and nitrosyl- and oxyHb were measured following saturation with each ligand.
Difference spectra were obtained by subtracting the UV-visible spectrum of a given sample before the addition of NO from those after. The simple competition model discussed above, predicts that such difference spectra could be approximated by a linear combination of two standard difference spectra: an oxyHb minus metHb spectrum, which gauges the progress of the NO oxidation reaction, and a deoxyHb minus iron nitrosyHb, which gauges the NO addition reaction; the sum of the combining coefficients is fixed by the mass balance ([NO]0). Standard difference spectra were obtained from UV-visible spectra of authentic samples of metHb, oxyHb, nitrosylHb, and deoxyHb. We determined combining coefficients by a least-squares fitting procedure. Inasmuch as the deoxy- and/or oxyheme concentrations can decline during the competition, an additional component (deoxyHb minus oxyHb) could be expected.
as §1

| Structure (SMILES) | SNO-Hb binding to IOVs from native vs DIDS-treated RBCs (IOVs) | rate of NO binding to ferrous myoglobin (myoglobin) [M⁻¹ s⁻¹] | rate of NO oxidation of oxymyoglobin (myoglobin) | nitrosyl yield (oxyHb; 1.2 μM NO added to 48 μM oxyHb) | share of nitrosyl yield that is SNO (oxyHb; 1.2 μM NO added to 48 μM oxyHb) | nitrosyl yield relative to the [Hb] (oxyHb; 1.2 μM NO, ≈99% O2 saturation, 10 mM phosphate) [%] | maximum yield of nitrosyl species (oxyHb; 1.2 μM NO, ≈99% O2 saturation, 10 mM phosphate, increasing [Hb]) | nitrosyl yields under normoxic conditions (oxyHb; heme vacancies only ≈1%) | rate constant of NO-mediated oxidation of oxyHb to metHb (Hb [1]) [M⁻¹ s⁻¹] | rate constant of binding of NO to unoccupied hemes in Hb (Hb [1]) [M⁻¹ s⁻¹] | iron nitrosylHb in fitted difference spectrum (Hb [2]; 2.2 μM NO, 33 μM Hb, 10 mM phosphate, ≈99% O2) [%] | metHb in fitted difference spectrum (Hb [2]; 2.2 μM NO, 33 μM Hb, 100 mM phosphate, ≈99% O2) [%] | added NO accounted for by the spectra (Hb [2]; 10 mM (low) phosphate) [%] | iron nitrosylHb in fitted difference spectrum (Hb [2]; 10 mM phosphate plus 0.05% borate) [%] | added NO accounted for by the spectra (Hb [2]; low phosphate plus borate) [%] |
| --- | --- | --- | --- | --- | --- | --- | --- | --- | --- | --- | --- | --- | --- | --- | --- |
| O=S(=O)(O)c1cc(N=C=S)ccc1C=Cc1ccc(N=C=S)cc1S(=O)(=O)O [DIDS, 4,4′-diisothiocyanatostilbene-2,2′-disulfonic acid] | equal affinity | – | – | – | – | – | – | – | – | – | – | – | – | – | – |
| [N]=O [NO, nitric oxide] | – | 2.5e+07 | 3.4×10^7 M^−1 sect^−1 | approximately 500 nM | ≈ 80% | 3 to 0.6 | approximately 50 % of NO added | ≤ 6 % of Hb | 3.7e+07 | 2.6e+07 | 54 | 95 | 50 | 85 | 80 |
